The subject of this assay is ischemic and reperfused hearts. Briefly: Ischemia and reperfusion of the isolated rat heart perfused by the Langendorff method: ventricular total sodium content and recovery in contractile tension. The following applies: for Sodium Content: 45 min ischemia, 30 min reperfusion, atomic absorption; for Recovery in Contractile Tension: at 30 min after reperfusion, relative to tension at beginning of experiment; for increase of ventricular sodium content induced by ischemia and reperfusion (result in words): added in the reperfusion solution. As to the method: The heart of the rat was excised and perfused with Krebs buffer solution (in mM: NaCl 119, KCl 4.6, MgSO4.7H2O 1.2, CaCl2·2H2O 1.3, NaHCO3 25, KH2PO4 1.2, glucose 11; pH 7.4, 37° C.) according to the Langendorff method. A thread was attached to the apex of the heart, and then the end was connected to a tension transducer to determine contractile tension. The preparation was stabilized, and then myocardial ischemia was induced by reducing a perfusion pressure (for 45 minutes). After reperfusion for 30 min, the heart was liquefied in nitric acid, and ventricular total sodium content was determined by atomic absorption analysis. Contractile tension was measured during the experiment, and a recovery rate in the contractile tension at 30 min after the reperfusion, relative to the contractile tension at the beginning of the experiment, was used as an index of cardiac contractility.

Structures are written as SMILES.

With `Cc1ccc(N2CCNCC2)c(S(=O)(=O)O)c1.O` [MCC-135, 5-methyl-2-(1-piperazinyl)benzenesulfonic acid monohydrate], the “increase of ventricular sodium content induced by ischemia and reperfusion (result in words)” value is reported as “suppressed”. The “Sodium Content” value (10^−6 M in reperfusion solution) was determined as 59.9 ± 2.3 µmol/g. Further, the “Recovery in Contractile Tension” value (10^−6 M) was determined as 79.4 ± 4.7 %. For the same compound, the “Sodium Content” value (10^−7 M in reperfusion solution) came out at 62.2 ± 0.6 µmol/g. Further, the “Recovery in Contractile Tension” value (10^−7 M) came to 68.4 ± 3.2 %. For the same compound, for the setting “10^−8 M in reperfusion solution”, the “Sodium Content” value came to 68.7 ± 3.7 µmol/g. In addition, the “Recovery in Contractile Tension” value (10^−8 M) is reported as 49.1 ± 2.9%. In addition, the “Sodium Content” value (10^−9 M in reperfusion solution) is 68.4 ± 6.2 µmol/g. The “Recovery in Contractile Tension” value (10^−9 M) turned out to be 40.0 ± 4.9%.

As for `N=C(N)NC(=O)c1nc(Cl)c(N)nc1N` [Amiloride, reference compound], the “increase of ventricular sodium content induced by ischemia and reperfusion (result in words)” value was “no effect”. Also, for the setting “10^−3 M”, the “Sodium Content” value was determined as 64.8 ± 3.7 µmol/g and the “Recovery in Contractile Tension” value is reported as 59.0 ± 4.7 %. Where the note is “10^−4 M”, the “Sodium Content” value worked out at 71.8 ± 3.3 µmol/g and the “Recovery in Contractile Tension” value worked out at 45.4 ± 3.8%. Where the note is “10^−5 M”, the “Sodium Content” value was found to be 77.9 ± 3.9 µmol/g and the “Recovery in Contractile Tension” value is 33.3 ± 7.2%.
